Here are results for twelve compounds from US20240018123A1, “COMPOUND FOR INHIBITING OR DISINTEGRATING ANDROGEN RECEPTOR, AND PHARMACEUTICAL USE THEREOF” (KOREA RESEARCH INSTITUTE OF CHEMICAL TECHNOLOGY, priority 2020, published 2024).

Read-outs that look alike come from different tables or passages of the source.

One data set addresses T1, Androgen receptor (AR) (Homo sapiens, UniProt P10275, T878A).
T1 construct: 5.5×10^5 LNCap cells were injected into each well of a 6-well plate; endogenous in cells; host or cells: LNCaP
T1 sequence (P10275 1-920 T878A): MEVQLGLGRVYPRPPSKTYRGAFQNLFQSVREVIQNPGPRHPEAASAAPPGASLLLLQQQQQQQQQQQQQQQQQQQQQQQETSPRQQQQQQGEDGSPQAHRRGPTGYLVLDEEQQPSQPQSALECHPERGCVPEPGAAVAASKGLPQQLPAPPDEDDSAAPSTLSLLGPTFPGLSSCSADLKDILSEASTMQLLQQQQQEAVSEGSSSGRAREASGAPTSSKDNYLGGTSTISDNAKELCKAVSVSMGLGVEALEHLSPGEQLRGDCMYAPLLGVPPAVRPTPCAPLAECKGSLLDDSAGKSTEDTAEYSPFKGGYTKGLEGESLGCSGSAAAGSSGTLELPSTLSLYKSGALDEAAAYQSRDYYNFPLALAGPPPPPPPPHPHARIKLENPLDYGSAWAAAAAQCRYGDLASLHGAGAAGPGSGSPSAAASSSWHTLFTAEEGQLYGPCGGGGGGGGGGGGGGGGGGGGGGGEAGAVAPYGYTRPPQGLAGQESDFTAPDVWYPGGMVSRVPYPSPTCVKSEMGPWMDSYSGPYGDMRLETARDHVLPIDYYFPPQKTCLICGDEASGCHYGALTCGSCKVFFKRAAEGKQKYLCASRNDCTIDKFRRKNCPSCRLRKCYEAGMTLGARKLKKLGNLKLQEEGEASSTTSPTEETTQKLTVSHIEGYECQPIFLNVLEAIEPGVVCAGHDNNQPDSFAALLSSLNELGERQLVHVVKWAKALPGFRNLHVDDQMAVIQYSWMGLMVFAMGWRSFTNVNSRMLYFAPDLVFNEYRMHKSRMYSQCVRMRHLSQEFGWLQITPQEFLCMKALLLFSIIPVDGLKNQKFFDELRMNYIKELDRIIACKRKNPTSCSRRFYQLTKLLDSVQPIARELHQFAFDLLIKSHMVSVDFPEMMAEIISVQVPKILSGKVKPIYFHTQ
In words: Assessment of AR proteolytic activity (Western blotting of LNCap cell lysates). The format is cell-based. The following applies: 24 hours of treatment, Western blotting quantified with Image J; for remaining activity at 1 µM: read-out: Degradation (1 μM treated in LNCaP, % AR remaining). In short, it runs like this: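 LNCap cells seeded at 5.5×10^5 per well and treated with compound for 24 hours. Lysates prepared in RIPA buffer (pH 7.5, with protease inhibitors). AR protein levels assessed by Western blot with densitometric quantification.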
Background: A western blot detects proteins with antibodies after separation by electrophoresis.

In data set [1] the test system is LNCaP cells.
For another data set, the system named is VCaP cells. In words: Cytotoxicity assessment (Cell-titer-glo cell viability), VCaP.
Data set [2] relates to LNCaP cells. In words: Cytotoxicity assessment (Cell-titer-glo cell viability), LNCaP.
The mark [3] stands for this setting: Homo sapiens, VCaP, 144 h, read-out: VCaP (CC50, μM).
[4] abbreviates: Homo sapiens, LNCaP, 144 h, read-out: LNCAP (CC50, μM).
Setting [5] is: read-out: VCaP (CC50), VCaP cells, 6 days of treatment, Cell-titer-glo, vs DMSO.
[6] abbreviates: read-out: LNCAP (CC50), LNCaP cells, 6 days of treatment, Cell-titer-glo, vs DMSO.

With `CC1(C)[C@H](NC(=O)c2ccc(N3CCN(CC4CCN(c5ccc6c(=O)n(C7CCC(=O)NC7=O)nnc6c5)CC4)CC3)cc2)C(C)(C)[C@H]1Oc1ccc(C#N)c(Cl)c1` (stereo partly shown) [Example 12, N-((1r,3r)-3-(3-chloro-4-cyanophenoxy)-2,2,4,4-tetramethylcyclobutyl)-4-(4-((1-(3-(2,6-dioxopiperidin-3-yl)-4-oxo-3,4-dihydrobenzo[d][1,2,3]triazin-7-yl)piperidin-4-yl)methyl)piperazin-1-yl)benzamide], the “Degradation (1 μM treated in LNCaP, % AR remaining)” value on Androgen receptor (AR) came out at 7%. Also, the 50% cytotoxic concentration (CC50) with LNCaP cells [1] is 1310 nM.
As for `CC1(C)[C@H](NC(=O)c2ccc(N3CCN(CCOC4CCN(C(=O)CNc5ccc6nnn(C7CCC(=O)NC7=O)c(=O)c6c5)CC4)CC3)cc2)C(C)(C)[C@H]1Oc1ccc(C#N)c(Cl)c1` (stereo partly shown) [Example 31, N-((1r,3r)-3-(3-chloro-4-cyanophenoxy)-2,2,4,4-tetramethylcyclobutyl)-4-(4-(2-((1-((3-(2,6-dioxopiperidin-3-yl)-4-oxo-3,4-dihydrobenzo[d][1,2,3]triazin-6-yl)glycyl)piperidin-4-yl)oxy)ethyl)piperazin-1-yl)benzamide], the remaining activity at 1 µM on Androgen receptor (AR) turned out to be 5%. For the same compound, the figures for the CC50 with VCaP cells (setting [3]) and with LNCaP cells [2] (setting [4]) were 0.0571 µM and 0.852 µM, respectively.
As for `CC1(C)[C@H](NC(=O)c2ccc(N3CCN(CC4CCN(C(=O)CNc5ccc6nnn(C7CCC(=O)NC7=O)c(=O)c6c5)CC4)CC3)cc2)C(C)(C)[C@H]1Oc1ccc(C#N)c(Cl)c1` (stereo partly shown) [Example 9, N-((1r,3r)-3-(3-chloro-4-cyanophenoxy)-2,2,4,4-tetramethylcyclobutyl)-4-(4-((1-((3-(2,6-dioxopiperidin-3-yl)-4-oxo-3,4-dihydrobenzo[d][1,2,3]triazin-6-yl)glycyl)piperidin-4-yl)methyl)piperazin-1-yl)benzamide], at Androgen receptor (AR), the “Degradation (1 μM treated in LNCaP, % AR remaining)” value was found to be 39.9%. Also, the CC50 in the data set with LNCaP cells [1] was 117 nM.
With `CC1(C)[C@H](NC(=O)c2ccc(N3CCN(C4CC5(CCN(C(=O)CNc6ccc7nnn(C8CCC(=O)NC8=O)c(=O)c7c6)CC5)C4)CC3)cc2)C(C)(C)[C@H]1Oc1ccc(C#N)c(Cl)c1` (stereo partly shown) [Example 19, N-((1r,3r)-3-(3-chloro-4-cyanophenoxy)-2,2,4,4-tetramethylcyclobutyl)-4-(4-(7-((3-(2,6-dioxopiperidin-3-yl)-4-oxo-3,4-dihydrobenzo[d][1,2,3]triazin-6-yl)glycyl)-7-azaspiro[3.5]nonan-2-yl)piperazin-1-yl)benzamide], the “Degradation (1 μM treated in LNCaP, % AR remaining)” value at Androgen receptor (AR) worked out at 23%. In addition, the cytotoxic concentration (CC50) in the data set with VCaP cells (setting [5]) amounted to 0.0763 µM; with LNCaP cells [2] (setting [6]), 0.208 µM.
As to `CC1(C)[C@H](NC(=O)c2ccc(N3CCN(CCOC4CCN(c5ccc6nnn(C7CCC(=O)NC7=O)c(=O)c6c5)CC4)CC3)cc2)C(C)(C)[C@H]1Oc1ccc(C#N)c(Cl)c1` (stereo partly shown) [Example 34, N-((1r,3r)-3-(3-chloro-4-cyanophenoxy)-2,2,4,4-tetramethylcyclobutyl)-4-(4-(2-((1-(3-(2,6-dioxopiperidin-3-yl)-4-oxo-3,4-dihydrobenzo[d][1,2,3]triazin-6-yl)piperidin-4-yl)oxy)ethyl)piperazin-1-yl)benzamide], the remaining activity at 1 µM on Androgen receptor (AR) worked out at 11%. Moreover, the figures for the cytotoxic concentration (CC50) in the data set with VCaP cells (setting [3]) and with LNCaP cells [2] (setting [4]) were 0.0702 µM and 0.523 µM, respectively.
In the case of “N-((1r,3r)-3-(3-chloro-4-cyanophenoxy)-2,2,4,4-tetramethylcyclobutyl)-4-(4-(2-((1-(1-(3-(2,6-dioxopiperidin-3-yl)-4-oxo-3,4-dihydrobenzo[d][1,2,3]triazin-6-yl)azetidine-3-carbonyl)piperidin-4-yl)oxy)ethyl)piperazin-1-yl)benzamide [Example 33]”, the “Degradation (1 μM treated in LNCaP, % AR remaining)” value on Androgen receptor (AR) was determined as 14%. Also, the figures for the CC50 in the data set on VCaP cells (setting [5]) and in the data set on LNCaP cells [2] (setting [6]) were 0.057 µM and 0.762 µM, respectively.
With `CC1(C)[C@H](NC(=O)c2ccc(N3CCN(C4CC5(CCN(C(=O)C6CCN(c7ccc8nnn(C9CCC(=O)NC9=O)c(=O)c8c7)CC6)CC5)C4)CC3)cc2)C(C)(C)[C@H]1Oc1ccc(C#N)c(Cl)c1` (stereo partly shown) [Example 20, N-((1r,3r)-3-(3-chloro-4-cyanophenoxy)-2,2,4,4-tetramethylcyclobutyl)-4-(4-(7-(1-(3-(2,6-dioxopiperidin-3-yl)-4-oxo-3,4-dihydrobenzo[d][1,2,3]triazin-6-yl)piperidine-4-carbonyl)-7-azaspiro[3.5]nonan-2-yl)piperazin-1-yl)benzamide], on Androgen receptor (AR), the “Degradation (1 μM treated in LNCaP, % AR remaining)” value is 26%. Further, the CC50 in the data set with VCaP cells (setting [5]) was found to be 0.0542 µM; in the data set on LNCaP cells [2] (setting [6]) it was 0.178 µM.
On the same counts, the results for “N-((1r,3r)-3-(3-chloro-4-cyanophenoxy)-2,2,4,4-tetramethylcyclobutyl)-4-(4-(2-((1-(1-(3-(2,6-dioxopiperidin-3-yl)-4-oxo-3,4-dihydrobenzo[d][1,2,3]triazin-6-yl)piperidine-4-carbonyl piperidin-4-yl)oxy)ethyl)piperazin-1-yl)benzamide [Example 30]” are 4%, 0.08 µM and 0.847 µM.
`CC1(C)[C@H](NC(=O)c2ccc(N3CCN(CCOC4CCN(C(=O)COc5ccc6nnn(C7CCC(=O)NC7=O)c(=O)c6c5)CC4)CC3)cc2)C(C)(C)[C@H]1Oc1ccc(C#N)c(Cl)c1` (stereo partly shown) [Example 32, N-((1r,3r)-3-(3-chloro-4-cyanophenoxy)-2,2,4,4-tetramethylcyclobutyl)-4-(4-(2-((1-(2-((3-(2,6-dioxopiperidin-3-yl)-4-oxo-3,4-dihydrobenzo[d][1,2,3]triazin-6-yl)oxy)acetyl)piperidin-4-yl)oxy)ethyl)piperazin-1-yl)benzamide]: the remaining activity at 1 µM at Androgen receptor (AR) is 2%. For the same compound, the CC50 with VCaP cells (setting [3]) was 0.141 µM; with LNCaP cells [2] (setting [4]) it was 1.3 µM.
Consider `CC1(C)[C@H](NC(=O)c2ccc(N3CCN(CC4CCN(C(=O)C5CCN(c6ccc7nnn(C8CCC(=O)NC8=O)c(=O)c7c6)CC5)CC4)CC3)cc2)C(C)(C)[C@H]1Oc1ccc(C#N)c(Cl)c1` (stereo partly shown) [Example 10, N-((1r,3r)-3-(3-chloro-4-cyanophenoxy)-2,2,4,4-tetramethylcyclobutyl)-4-(4-((1-(1-(3-(2,6-dioxopiperidin-3-yl)-4-oxo-3,4-dihydrobenzo[d][1,2,3]triazin-6-yl)piperidine-4-carbonyl)piperidin-4-yl)methyl)piperazin-1-yl)benzamide], for which the “Degradation (1 μM treated in LNCaP, % AR remaining)” value at Androgen receptor (AR) was 12.5%. In addition, the half-maximal cytotoxic concentration (CC50) came out at 0.257 µM in the data set with VCaP cells (setting [5]) and 0.19 µM in the data set on LNCaP cells [2] (setting [6]).
Turning to `CC1(C)[C@H](NC(=O)c2ccc(N3CCN(CCC4CCN(C(=O)C5CCN(c6ccc7nnn(C8CCC(=O)NC8=O)c(=O)c7c6)CC5)CC4)CC3)cc2)C(C)(C)[C@H]1Oc1ccc(C#N)c(Cl)c1` (stereo partly shown) [Example 26, N-((1r,3r)-3-(3-chloro-4-cyanophenoxy)-2,2,4,4-tetramethylcyclobutyl)-4-(4-(2-(1-(1-(3-(2,6-dioxopiperidin-3-yl)-4-oxo-3,4-dihydrobenzo[d][1,2,3]triazin-6-yl)piperidine-4-carbonyl)piperidin-4-yl)ethyl)piperazin-1-yl)benzamide], the “Degradation (1 μM treated in LNCaP, % AR remaining)” value on Androgen receptor (AR) was determined as 7%. Also, the CC50 with VCaP cells (setting [5]) came out at 0.0516 µM; in the data set on LNCaP cells [2] (setting [6]), 0.361 µM.
Regarding `CC1(C)[C@H](NC(=O)c2ccc(N3CCN(C4CC5(CCN(c6cccc7nnn(C8CCC(=O)NC8=O)c(=O)c67)CC5)C4)CC3)cc2)C(C)(C)[C@H]1Oc1ccc(C#N)c(Cl)c1` (stereo partly shown) [Example 22, N-((1r,3r)-3-(3-chloro-4-cyanophenoxy)-2,2,4,4-tetramethylcyclobutyl)-4-(4-(7-(3-(2,6-dioxopiperidin-3-yl)-4-oxo-3,4-dihydrobenzo[d][1,2,3]triazin-5-yl)-7-azaspiro[3.5]nonan-2-yl)piperazin-1-yl)benzamide], on Androgen receptor (AR), the “Degradation (1 μM treated in LNCaP, % AR remaining)” value is 74%. Further, the CC50 with VCaP cells (setting [5]) came out at 0.135 µM; in the data set on LNCaP cells [2] (setting [6]), 13.4 µM.

The term CC50 denotes the concentration giving 50% cytotoxicity.
